Where two headings read alike, the source gives them in different places.
How the values were obtained:
[1] = Fluorescent quantum yield in solid state and in solution; type: physicochemical; details: solid state
Protocol: (§1) The present compounds are strongly emissive in the solid state with good fluorescent quantum yields. The compounds are weakly emissive or non-emissive when dissolved in aqueous solutions. […] In contrast, when these compounds are dissolved, the solutions only emit faint light (Qy<1%). The compounds dissolve well in alcohols. The compounds can be modestly dissolved (for TPE-4TTZ, up 100 μM in DI-water) in the aqueous phase. Furthermore by the addition of NaOH solutions, the formed salts dissolve well in the aqueous phase (for TPE-4TTZ, up to 1 M in water).

[2] = Fluorescence turn-on sensing and titration of silver ions; details: for ratio [Ag^+]:[probe] at which PL intensity is saturated / maximum: probe 5 μM; for LOD (limit of detection) of silver ions / Linear Range of silver ion detection: probe 5 μM in DI-water, excitation 345 nm
From the text: The turn-on fluorescence response was instant. The detection of silver ions was highly sensitive and sharp intensity changes could be detected with the naked eye. DLS (Dynamic light scattering) measurement confirmed the formation of nanoparticles. […] This is likely due to the reduction of silver-tetrazole complexes by the strong electron-beam during TEM studies. These emissive silver-compound solid complexes are hardly soluble in a range of solvents, including DMSO, methanol, and water. NMR analysis of these complexes is not possible. The complexes are also resistant to acid/base treatment, or heating by a heat-gun.
In fluorescence spectroscopy, solutions containing silver ions behaved quite differently from solutions without silver ions in terms of intensity, with the ratio of intensity at maximum peak at 504 nm exceeding 400 times (FIGS. 3A-3D). […] By plotting the intensity of maximum intensive peaks against the ratio of ion concentrations, it was expected that the working curve for the quantitative detection of silver ions could be established. […] Meanwhile, the detection limit (LOD) of silver ions is estimated to be 40 nM (S/N=3 and n=11). With a further increase of [Ag^+], the intensity reaches a plateau.
Tetrazole-tagged AIE luminogen TPE-4TTZ (5 μM) undergoes a fluorescence turn-on response towards a solution of silver ions. The solutions can include organic solutions, aqueous solutions including natural water, wastes and/or biological buffer solutions. PL spectra were recorded on a Perkin-Elmer LS 55 spectrofluorometer.
The solutions included organic solutions, aqueous solutions including natural water, wastes and/or biological buffer solutions. For the same probes, the calibration curve varied a little in different solutions. UV spectra were measured on a Biochrom Libra S80PC double beams spectrometer. PL spectra were recorded on a Perkin-Elmer LS 55 spectrofluorometer.

[3] = Selectivity: fluorescence response to other metal ions
Protocol: (§2) As selectivity is an important parameter for sensing technique, responses of these probes to other metal ions were examined. […] Mercury is reported to coordinate with the tetrazole group.
(§3) With reference to FIG. 7, tetrazole-tagged AIE luminogen TPE-4TTZ (10 μM) underwent a fluorescence turn-on response towards a solution of silver ions in the presence of other metal ions in phosphate aqueous solution (10 mM, pH 7.4). PL spectra were recorded on a Perkin-Elmer LS 55 spectrofluorometer. Tetrazole-tagged AIE luminogen TPE-4TTZ (10 μM) underwent a fluorescence turn-on response towards a solution of silver ions in the presence of other silver-binding molecules in phosphate aqueous solution (10 mM, pH 7.4). In each example, the silver-binding molecule was added prior to the addition of the probes from a stock solution. The stock solution of the probe is 1 mM in ethanol. PL spectra were recorded on a Perkin-Elmer LS 55 spectrofluorometer.

[4] = cited from earlier work
[5] = Solubility in the aqueous phase; type: physicochemical
Protocol: as §1

[6] = pH dependence of Ag^+ induced fluorescence in phosphate buffer; details: phosphate buffer solutions
From the text: (§4) The Ag^+/Hg^2+ coordination-induced fluorescence can be pH-sensitive. For example, with respect to TPE-4TTZ, a series of tests were done in phosphate buffer solutions at different pH varying from 4 to 12. At pH lower than 4, the tetrazole moiety (pKa˜4-5) was largely in the protonated form and sparingly soluble in solution and, thus, aggregated. The aggregation elicited fluorescence with a different color from that of the silver complexes. Therefore, the turn-on detection is only possible in solutions with pH>4. When pH is from 5˜6, PL response is significant enough for a high resolution detection of silver ions. […] Furthermore regarding the mercury detection, the FL response was significant only at the pH window (4˜7); when pH>8, the fluorescence turn-on was not observed anymore. Thus, TPE-4TTZ is only sensitive to silver ions in basic solutions. Similar observations were made for the other tetrazole-tagged TPEs.

[7] = Selectivity: fluorescence response to mercury ions
From the text: as §2
as §4, with “pH>4.” for “pH>4. When pH is from 5˜6, PL response is significant enough for a high resolution detection of silver ions.”, “Thus, TPE-4TTZ is only sensitive to silver ions in basic solutions. Similar observations were made for the other tetrazole-tagged TPEs.” left out
as §3, with “In each example, the silver-binding molecule was added prior to the addition of the probes from a stock solution. The stock solution of the probe is 1 mM in ethanol. PL spectra were recorded on a Perkin-Elmer LS 55 spectrofluorometer.” left out

[8] = Interference of silver-binding reagents with silver sensing; details: TPE-4TTZ 5 μM, anions 100 equiv.
Protocol: Detection can be based on selective coordination involving electrostatic interactions. Tests were conducted to determine whether silver binding moieties (e.g., anions) might be another kind of interfering factor in the mixture. […] After a short while of shaking, the probe (10 eq.) was added. Each solution was gently mixed and then checked in a PL machine. Compared with the control group, the interfering reagents including amino acids and DNA/RNA bases were only weakly interfering with the silver-tetrazole sensing process. In other words, the tetrazole anions can snatch silver ions from these ligands and elicit a fluorescence turn-on. There were exceptions, in particular for strong silver-interacting structures. Cysteine, the sulfur-containing amino acid, blocked sensing by the strong S—Ag interaction. Similar results were seen from SCN^− and S2O3^2-, due to their stronger binding affinity towards Ag^+ than the tetrazole anion (CN4^−). In addition, ammonium solution blocked sensing by reducing Ag^+ into metallic silver.
With reference to FIG. […] PL spectra were recorded on a Perkin-Elmer LS 55 spectrofluorometer. […] In each example, the silver-binding molecule was added prior to the addition of the probes from a stock solution. The stock solution of the probe is 1 mM in ethanol. PL spectra were recorded on a Perkin-Elmer LS 55 spectrofluorometer.

[9] = phosphate aqueous solution 10 mM, pH 7.4

SMILES | fluorescent quantum yield (Qy) [1] | ratio [Ag^+]:[probe] at which PL intensity is saturated / maximum [2] | LOD (limit of detection) of silver ions [2] | Linear Range of silver ion detection [2] | PL response to Mg^2+, Mn^2+, Zn^2+, Al^3+ etc. [3, 9] | effect of Fe^2+, Fe^3+, Co^2+ and Cu^2+ on fluorescence ([3]; same conditions) | pKa of tetrazole moiety [4] | solubility ([5]; deionised water, DI-water, read-out: solubility in the aqueous phase) | solubility ([5]; water with added NaOH solution, aqueous buffer, water, after addition of NaOH solution, read-out: solubility of the formed salt in the aqueous phase) | pH at which maximum PL response to silver is relatively stable [6] | pH at which turn-on detection of silver is possible ([6]; pH 4 to 12) | PL response to mercury ions [7, 9] | pH window with significant FL response to mercury ([7]; phosphate buffer solutions, pH 4 to 12) | fluorescence on mixing with different anions without Ag^+ [8] | fluorescence response on addition of silver ions ([2]; TPE-4TTZ 5 μM, silver ions 500 μM, UV 350 nm)
c1ccc(C(=C(c2ccccc2)c2ccc(-c3nnn[nH]3)cc2)c2ccccc2)cc1 [TPE-1TTZ] | 39.6% | 0.6 | 1.5 nM | 0.1~3 μM |  |  |  |  |  |  |  |  |  |  | 
c1ccc(C(=C(c2ccc(-c3nnn[nH]3)cc2)c2ccc(-c3nnn[nH]3)cc2)c2ccccc2)cc1 [TPE-2TTZ] | 36.2% | 2.6 | 3.0 nM | 0.2~10 μM |  |  |  |  |  |  |  |  |  |  | 
c1cc(-c2nnn[nH]2)ccc1C(=C(c1ccc(-c2nnn[nH]2)cc1)c1ccc(-c2nnn[nH]2)cc1)c1ccc(-c2nnn[nH]2)cc1 [TPE-4TTZ] | 76.8% | ~4 | 2.3 nM | 0.04~15 μM | hardly increased the PL intensity | quench the weak fluorescence | 4-5 | ≤ 0.1 mM | ≤ 1000 mM | > 6 | > 4 | significant enhancement of PL intensity | 4˜7 | did not generate strong fluorescence | highly emissive
